Series [1] has as its target T1, human dopamine D3 receptors (Homo sapiens, UniProt P35462).
T1 construct: expressed in transfected cells; host or cells: HEK-293
In words: Receptor binding study, dopamine D3 receptor ([125I]-iodosulpride displacement). As to conditions: membranes of HEK-293 cells, 0.1 nM [125I]-iodosulpride, 25° C., 60 minutes. The protocol: (§1) The substance to be tested was either dissolved in methanol/Chremophor® (BASF SE) or in dimethyl sulfoxide and then diluted with water to the desired concentration.
(§2) Each assay mixture was run in triplicate. • The incubation buffer contained 50 mM tris, 120 mM NaCl, 5 mM KCl, 2 mM CaCl2, 2 mM MgCl2 and 0.1% bovine serum albumin, 10 μM quinolone and 0.1% ascorbic acid (prepared fresh daily). […] Each assay mixture was run in triplicate. • The incubation buffer contained 50 mM tris, 120 mM NaCl, 5 mM KCl, 2 mM CaCl2, 2 mM MgCl2 and 0.1% bovine serum albumin. The buffer was adjusted to pH 7.4 with HCl. c) Measurement and Analysis: • After having been incubated at 25° C. for 60 minutes, the assay mixtures were filtered through a Whatman GF/B glass fiber filter under vacuum using a cell collecting device. The filters were transferred to scintillation viols using a filter transfer system. After 4 ml of Ultima Gold® (Packard) have been added, the samples were shaken for one hour and the radioactivity was then counted in a Beta-Counter (Packard, Tricarb 2000 or 2200CA).

Series [2] concerns the target T2, human dopamine D2L receptors (long isoform) (Homo sapiens, UniProt P14416).
T2 construct: expressed in transfected cells; host or cells: HEK-293
The experiment in a line: Receptor binding study, dopamine D2L receptor ([125I]iodospiperone displacement), selectivity vs D3. The note with it: selectivity ratio, HEK-293 membranes. How it is done:
as §1, §2

Series [3] is described as follows: Determination of the microsomal half-life / microsomal clearance, rat. The format is in vitro ADME. The note with it: rat liver microsomes, 0.5 μM test substance, 0.25 mg microsomal protein/ml, NADPH, 37° C. How it is done:
(§3) The metabolic stability of the compounds of the invention was determined in the following assay.
(§4) The test substances were incubated in a concentration of 0.5 μM as follows:
(§5) 0.5 μM test substance are preincubated together with liver microsomes from different species (from rat, human or other species) (0.25 mg of microsomal protein/ml) in 0.05 M potassium phosphate buffer of pH 7.4 in microtiter plates at 37° C. for 5 min. The reaction is started by adding NADPH (1 mg/mL). After 0, 5, 10, 15, 20 and 30 min, 50 μl aliquots are removed, and the reaction is immediately stopped and cooled with the same volume of acetonitrile. The samples are frozen until analyzed. The remaining concentration of undegraded test substance is determined by MSMS. The half-life (T½) is determined from the gradient of the signal of test substance/unit time plot, it being possible to calculate the half-life of the test substance, assuming first order kinetics, from the decrease in the concentration of the compound with time. The microsomal clearance (mCl) is calculated from mCl=ln 2/T½/(content of microsomal protein in mg/ml)×1000 [ml/min/mg] (modified from references: Di, The Society for Biomoleculur Screening, 2003, 453-462; Obach, DMD, 1999 vol 27. N 11, 1350-1359).
A general note: Liver microsomes are vesicles of endoplasmic reticulum, rich in cytochrome P450 enzymes.

Series [4] can be described thus: Determination of the microsomal half-life / microsomal clearance, human. Format: in vitro ADME. As to conditions: human liver microsomes, 0.5 μM test substance, 0.25 mg microsomal protein/ml, NADPH, 37° C. How it is done: as §3, §4, §5

Structures are written as SMILES.

T2 sequence (P14416 whole entry, canonical isoform): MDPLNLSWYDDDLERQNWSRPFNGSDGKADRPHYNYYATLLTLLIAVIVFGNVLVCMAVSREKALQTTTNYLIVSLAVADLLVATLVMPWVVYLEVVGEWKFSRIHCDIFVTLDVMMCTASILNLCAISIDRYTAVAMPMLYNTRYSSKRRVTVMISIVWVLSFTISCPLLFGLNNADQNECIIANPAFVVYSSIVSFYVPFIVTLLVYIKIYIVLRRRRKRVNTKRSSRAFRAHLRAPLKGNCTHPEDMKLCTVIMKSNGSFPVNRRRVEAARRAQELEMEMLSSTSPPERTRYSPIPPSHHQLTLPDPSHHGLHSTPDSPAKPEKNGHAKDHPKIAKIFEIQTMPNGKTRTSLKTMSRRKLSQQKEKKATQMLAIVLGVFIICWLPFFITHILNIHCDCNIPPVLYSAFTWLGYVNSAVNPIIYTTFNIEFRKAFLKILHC
T1 sequence (P35462 whole entry): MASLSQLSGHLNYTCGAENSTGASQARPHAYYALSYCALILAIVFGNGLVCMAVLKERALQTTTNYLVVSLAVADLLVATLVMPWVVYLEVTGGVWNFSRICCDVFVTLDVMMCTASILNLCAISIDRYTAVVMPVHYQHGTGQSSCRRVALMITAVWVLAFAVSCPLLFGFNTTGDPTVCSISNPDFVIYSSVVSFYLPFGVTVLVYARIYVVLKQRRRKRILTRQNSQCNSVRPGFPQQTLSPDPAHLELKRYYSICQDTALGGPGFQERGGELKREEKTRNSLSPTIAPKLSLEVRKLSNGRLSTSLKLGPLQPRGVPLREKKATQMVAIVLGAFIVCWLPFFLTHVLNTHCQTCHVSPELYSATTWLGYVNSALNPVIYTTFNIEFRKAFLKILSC

A word on the Ki: it is a dissociation constant, usually derived from enzyme kinetics or from competition with a known ligand. As to `CC(=O)N[C@H]1CC[C@H](CCN2CCN(c3cc(CO)nc(C(C)(C)C)n3)CC2)CC1` [Compound 22, trans-N-[4-[2-[4-[2-tert-butyl-6-(hydroxymethyl)pyrimidin-4-yl]piperazin-1-yl]ethyl]cyclohexyl]acetamide], in series [1], the Ki was less than 50 nM. The “D2/D3 (Ki (D2L)/Ki (D3))” value in series [2] is given as “+++ (+++>50)”. Besides, in series [3], the “Rat mCl” value is on record as “+ (+: 20-120 μl min^−1 mg^−1)”. In addition, the “Human mCl” value in series [4] is “+ (+: 20-120 μl min^−1 mg^−1)”.

In turn, `CC(C)(C)c1nc(CCO)cc(N2CCN(CC[C@H]3CC[C@H](NC=O)CC3)CC2)n1` [Compound 23, trans-N-[4-[2-[4-[2-tert-butyl-6-(2-hydroxyethyl)pyrimidin-4-yl]piperazin-1-yl]ethyl]cyclohexyl]formamide] displayed a Ki in series [1] of less than 50 nM. Also, the “D2/D3 (Ki (D2L)/Ki (D3))” value in series [2] is “+++ (+++>50)”. Moreover, the “Rat mCl” value in series [3] is recorded as “+ (+: 20-120 μl min^−1 mg^−1)”. Further, the “Human mCl” value in series [4] is given as “+ (+: 20-120 μl min^−1 mg^−1)”.

In turn, `COCCc1cc(N2CCN(CC[C@H]3CC[C@H](NC=O)CC3)[C@H](C)C2)nc(C(C)(C)C)n1` [Compound 24, trans-N-[4-[2-[(2R)-4-[2-tert-butyl-6-(2-methoxyethyl)pyrimidin-4-yl]-2-methyl-piperazin-1-yl]ethyl]cyclohexyl]formamide] registered a Ki in series [1] of less than 50 nM. In series [2], the “D2/D3 (Ki (D2L)/Ki (D3))” value is reported as “+++ (+++>50)”. In addition, the “Rat mCl” value in series [3] is listed as “+ (+: 20-120 μl min^−1 mg^−1)”. Besides, the “Human mCl” value in series [4] is “+ (+: 20-120 μl min^−1 mg^−1)”.

In series [1], `CC(=O)N[C@H]1CC[C@H](CCN2CCN(c3cc(CCO)nc(C(C)(C)C)n3)[C@@H](C)C2)CC1` [Compound 25, trans-N-[4-[2-[(3S)-4-[2-tert-butyl-6-(2-hydroxyethyl)pyrimidin-4-yl]-3-methyl-piperazin-1-yl]ethyl]cyclohexyl]acetamide] gave a Ki of less than 10 nM. Further, the “D2/D3 (Ki (D2L)/Ki (D3))” value in series [2] is “+++ (+++>50)”. Moreover, in series [3], the “Rat mCl” value is given as “+ (+: 20-120 μl min^−1 mg^−1)”. Moreover, in series [4], the “Human mCl” value was “+ (+: 20-120 μl min^−1 mg^−1)”.

In series [1], `COCCc1cc(N2CCN(CCC3CC(NC=O)C3)C[C@@H]2C)nc(C(C)(C)C)n1` (stereo partly drawn) [Compound 28, N-[3-[2-[(3S)-4-[2-tert-butyl-6-(2-methoxyethyl)pyrimidin-4-yl]-3-methyl-piperazin-1-yl]ethyl]cyclobutyl]formamide] yielded a Ki of less than 50 nM. Further, in series [2], the “D2/D3 (Ki (D2L)/Ki (D3))” value was “+ (+>10)”. The “Rat mCl” value in series [3] is “+ (+: 20-120 μl min^−1 mg^−1)”. Also, in series [4], the “Human mCl” value was “+ (+: 20-120 μl min^−1 mg^−1)”.

In the case of `CC(=O)N[C@H]1CC[C@H](CCN2CCN(c3cc(CCO)nc(C(C)(C)C)n3)[C@H](C)C2)CC1` [Compound 29, trans-N-[4-[2-[(3R)-4-[2-tert-butyl-6-(2-hydroxyethyl)pyrimidin-4-yl]-3-methyl-piperazin-1-yl]ethyl]cyclohexyl]acetamide], the inhibitory constant (Ki) in series [1] is less than 50 nM. For the same molecule, in series [2], the “D2/D3 (Ki (D2L)/Ki (D3))” value is “+++ (+++>50)”. The “Rat mCl” value in series [3] was “+ (+: 20-120 μl min^−1 mg^−1)”. In addition, the “Human mCl” value in series [4] was “+ (+: 20-120 μl min^−1 mg^−1)”.

Molecule `COCCc1cc(N2CCN(CC[C@H]3C[C@H](NC(C)=O)C3)C[C@@H]2C)nc(C(C)(C)C)n1` [Compound 30, trans-N-[3-[2-[(3S)-4-[2-tert-butyl-6-(2-methoxyethyl)pyrimidin-4-yl]-3-methyl-piperazin-1-yl]ethyl]cyclobutyl]acetamide] gave a Ki in series [1] of less than 50 nM. Moreover, the “D2/D3 (Ki (D2L)/Ki (D3))” value in series [2] is reported as “++ (++>20)”. Moreover, the “Rat mCl” value in series [3] is “+ (+: 20-120 μl min^−1 mg^−1)”. Also, in series [4], the “Human mCl” value is “+ (+: 20-120 μl min^−1 mg^−1)”.

In series [1], `COCCc1cc(N2CCN(CC[C@H]3C[C@@H](NC(C)=O)C3)C[C@@H]2C)nc(C(C)(C)C)n1` [Compound 31, cis-N-[3-[2-[(3S)-4-[2-tert-butyl-6-(2-methoxyethyl)pyrimidin-4-yl]-3-methyl-piperazin-1-yl]ethyl]cyclobutyl]acetamide] had an inhibitory constant (Ki) of less than 10 nM. Moreover, in series [2], the “D2/D3 (Ki (D2L)/Ki (D3))” value is listed as “+ (+>10)”. In addition, the “Rat mCl” value in series [3] was “+ (+: 20-120 μl min^−1 mg^−1)”. Further, the “Human mCl” value in series [4] is “+ (+: 20-120 μl min^−1 mg^−1)”.

(Values after patent publication US9376396B2, “Acylaminocycloalkyl compounds suitable for treating disorders that respond to modulation of dopamine D3 receptor” (AbbVie Deutschland GmbH & Co. KG, priority 2012, dated 2016).)
